Measured values reported in patent publication US7981936B2, “Crystalline ACAT inhibitor” (Graceway Pharmaceuticals, LLC, priority 2005, dated 2011).

- melting point: 102.3 °C
SMILES: CC(C)c1cccc(C(C)C)c1NC(=O)CC(=O)N(Cc1ccccc1)C(C)C [Form A polymorph, N-benzyl-N′-(2,6-diisopropyl-phenyl)-N-isopropyl-malonamide]
